In publication PMC11755785 (Langmuir, 2025):

Columns and labels:
[1] = Phase-solubility diagram with β-CD
Experimental: The solutions were mechanically shaken at 298 K in a thermostatic chamber, and the supernatant was sampled and filtered after passage for appropriate periods. The concentration of the drug in the supernatant was determined using HPLC.
The phase-solubility diagram consists of the equilibrium concentration of the guest drug as the ordinate and the total concentration of the host CD as the abscissa.[45] If a straight line and parabolic curve can be approximated on the phase-solubility diagram, then, the curves are classified as AL- and AP-types in the Higuchi and Connors catalogs, respectively.[45],[46]
Multiple regression analysis of the measured data set to the total concentration of the host ([CD]) and its squares ([CD]^2) using eq 3 can be used to obtain the stability constants for a combination of the equimolar complex K1:1 and double-host associating complex K1:2.[45],[46] [drawing 3] 3 This is the sum of the dissociated (free) and associated (complexed) drug concentrations. Although the Benesi–Hildebrand equation with the square of the host concentration has been used for parabolic correlations, its validity remains unclear.
This curve is classified as the AN-type on the Higuchi and Connors catalog.[45]−[48] The curve is described by eq 4′ according to the Langmuir adsorption isotherm model.[47]−[51] To process with the linear regression analysis of ordinate ([CD]/γ) referred to abscissa ([CD]), the Hanes–Woolf expression in eq 4′ may be used [drawing 4] 4 [drawing 5] 4′ where n indicates the asymptotic concentration of the drug associated with CD (saturation, maximal γ) and K is equivalent to the drug/CD complex stability constant. […] The stoichiometry of a complex of drugs with CD is difficult to determine; the prevailing opinion is that more than one guest molecule incorporates a host molecule and that hydration or ionization of the guest regulates the solubility of the complex.[46]
Szejtili[46] stated that, in rare cases, the ascending region at lower host concentrations is followed by a plateau region, similar to that of the AN-type saturation curve. Simultaneously, it terminates at any host concentration threshold. It is named the BS-type in the Higuchi and Connors catalog,[45]−[48] and for concentrations higher than the threshold, the guest concentration decreases along a hyperbola, probably according to the solubility product KSP.[49] To analyze this type of pattern, a hypothesis that is yet to be discussed is required.[52] […] At the threshold concentration of CD, the scale of the aggregated dispersoids transcends an upper limit, and the aggregation induces subsequent sedimentation.[52] Thus, the solubility product may be considered a property of poorly soluble aggregated dispersoids containing a tolerable amount of the drug and an excess amount of CD.

[2] = Flask-shaking 1-octanol/water partition, log D–pH profile fitted to Avdeef's diagram; format: physicochemical; conditions: modified Britton–Robinson buffers pH 5–11.5, 298 K
Experimental: The aqueous-phase solvents were prepared by mixing 25 mM KH2PO4 and 25 mM Na2HPO4 solutions in 25 mM Pi buffer. The pH was adjusted before fixing the prescribed concentrations of the acid components of the buffer. The JP1 and JP2 buffer solutions were 10 mM sodium citrate/HCl buffer (pH 1.2) and Pi buffer (pH 6.8), which were prepared in compliance with the description for solution media for the dissolution test in Japanese Pharmacopeia (JP)-implemented international harmonization. The modified Britton–Robinson universal pH buffer comprised 28.6 mM KH2PO4, 28.6 mM HBO2, and 28.6 mM NaCl, titrated with 1 M NaOH (here, modified means elimination of barbital to cancel its interaction with organic solutes). For the partition equilibrium examination, the aqueous saturated 1-octanol phase comprised 1-octanol, which was flooded with a modified Britton–Robinson buffer adjusted to the appropriate pH in advance.
The hydrophobic drug dissolved in the aqueous saturated 1-octanol phase was mixed with an isochoric solution of the modified Britton–Robinson buffer (pH 5–11.5), saturated with 1-octanol. Thereafter, the samples in the screw-capped vials were machine-shaken at 298 K in a thermostatic chamber for 60 min and subsequently kept stationary for 60 min; the procedure corresponds to the conventional “flask-shaking” method.[41]−[43] After settling, the pH in the aqueous phase was confirmed using pH indicator strips (MColoHast pH 0–6.0, MQuant pH 7.5–14, and MQuant pH 0–14, Merck, Germany) to be that of the adjusted pH value. Aliquots (10 μL) from the 1-octanol and the aqueous layers were injected into the HPLC instrument. The 1-octanol/water partition coefficients, log P (equivalent to log KOW), and acid dissociation constants, pKa, were optimized using curve fitting, approximated by eq 1 [drawing 1] 1 which is Avdeef’s diagram[44] derived from the Henderson–Hasselbalch expression for the equilibrium between the protonated and deprotonated species. The curve-fitting procedures used the solver module of Microsoft Excel 2016 with the implemented GRG nonlinear option. Approximate curves corresponding to these optimized parameters were drawn, and the pKa and log P values for AVB, OXB, and CUR were obtained.

[3] = Molar absorption coefficients of 270 and 360 nm peaks (UV–vis calibrated by NMR molar ratio); format: physicochemical
Excerpt: From NMR titration, the diketo and enol forms were expected to be 15.3 and 84.7%, respectively. Therefore, the abscissae of the regression lines were condensed to the species contents, leading to the molar absorption coefficients (i.e., absorbance gradients to the molarity) for the diketo and keto-enol forms being approximately 8.1 × 10^7 and 4.3 × 10^7 L/mol. Figure S13 confirms that the molar absorption coefficients for the diketo and keto-enol forms in the isochoric acetonitrile/water solvent were approximately 13.8 × 10^7 and 3.6 × 10^7 L/mol, respectively. The obtained parameters allowed the absorbance to be converted into AVB molarity.

Substance: p-tert-butyl-p-methoxydibenzoylmethane [AVB]
- stability constant K1:1 with β-CD ([1]; 25 mM Pi/NaOH buffer pH 6.8, 298 K, Figure 2, in M-1 (unit assumed)): 1023
- stability constant K1:1 with β-CD ([1]; equimolar complex, pH 6.8): 1023 L/mol
- acid dissociation constant, pKa ([2]; from log D–pH curve fitting): 8.59
- 1-octanol/water partition coefficient, log P ([2]; neutral form, curve fitting): 4.27
- molar absorption coefficient, diketo form (270 nm) ([3]; isochoric acetonitrile/water): approximately 13.8 × 10^7 L/mol
- molar absorption coefficient, keto-enol form (360 nm) ([3]; isochoric acetonitrile/water): ~3.6e+07 L/mol
- molar absorption coefficient, keto-enol form (360 nm) ([3]; methanol/H2O = 7:3): ~4.3e+07 L/mol
